Experiments:
wild poinsettia = assay: Test E postemergence; type: in vivo, Euphorbia heterophylla; details: Euphorbia heterophylla, post-emergence, read-out: Plant response rating, Poinsettia, Wild; for pest or weed control at 31 g/ha: 31 g ai/ha; for pest or weed control at 62 g/ha: 62 g ai/ha; for pest or weed control at 125 g/ha: 125 g ai/ha; for pest or weed control at 16 g/ha: postemergence, 16 g ai/ha, scale 0 to 100, 0 no effect, 100 complete control
Source text: (§1) Seeds of plant species selected from corn (Zea mays), soybean (Glycine max), velvetleaf (Abutilon theophrasti), lambsquarters (Chenopodium album), wild poinsettia (Euphorbia heterophylla), palmer pigweed (Amaranthus palmeri), waterhemp (common waterhemp, Amaranthus rudis), surinam grass (Brachiaria decumbens), large (Lg) crabgrass (Digitaria sanguinalis), Brazilian crabgrass (Digitaria horizontalis), fall panicum (Panicum dichotomiflorum), giant foxtail (Setaria faberii), green foxtail (Setaria viridis), goosegrass (Eleusine indica), johnsongrass (Sorghum halepense), ragweed (common ragweed, Ambrosia elatior), barnyardgrass (Echinochloa crus-galli), sandbur (southern sandbur, Cenchrus echinatus), arrowleaf sida (Sida rhombifolia), Italian ryegrass (Lolium multiflorum), dayflower (Virginia (VA) dayflower, Commelina virginica), field bindweed (Convolvulus arvensis), morningglory (Ipomoea coccinea), nightshade (eastern black nightshade, Solanum ptycanthum), kochia (Kochia scoparia), yellow nutsedge (Cyperus esculentus), cocklebur (common cocklebur, Xanthium strumarium), smartweed (ladysthumb smartweed, and hairy beggarticks (Bidens pilosa), were planted into a silt loam soil and treated preemergence with test chemicals formulated in a non-phytotoxic solvent mixture which included a surfactant.
(§2) At the same time, plants from these crop and weed species and also horseweed (Canada horseweed, Conyza canadensis), waterhemp_RES1, (ALS & Triazine resistant common waterhemp, Amaranthus rudis), and waterhemp_RES2, (ALS & HPPD resistant common waterhemp, Amaranthus rudis) were planted in pots containing Redi-Earth® planting medium (Scotts Company, 14111 Scottslawn Road, Marysville, Ohio 43041) comprising spaghnum peat moss, vermiculite, wetting agent and starter nutrients were treated with postemergence applications of test chemicals formulated in the same manner. Plants ranged in height from 2 to 18 cm for postemergence treatments (1- to 4-leaf stage). Treated plants and controls were maintained in a greenhouse for 14 to 21 days, after which time all species were compared to controls and visually evaluated. Plant response ratings, summarized in Table E, are based on a scale of 0 to 100 where 0 is no effect and 100 is complete control. A dash (-) response means no test result.

palmer pigweed = assay: Test E postemergence; type: in vivo, Amaranthus palmeri; details: post-emergence, read-out: Plant response rating, Pigweed, Palmer; for pest or weed control at 31 g/ha: 31 g ai/ha; for pest or weed control at 62 g/ha: 62 g ai/ha; for pest or weed control at 125 g/ha: 125 g ai/ha; for pest or weed control at 16 g/ha: postemergence, 16 g ai/ha, scale 0 to 100, 0 no effect, 100 complete control
Source text: as §1, §2

sandbur = assay: Test E postemergence; type: in vivo, Cenchrus echinatus; details: Cenchrus echinatus, post-emergence, read-out: Plant response rating, Sandbur; for pest or weed control at 31 g/ha: 31 g ai/ha; for pest or weed control at 62 g/ha: 62 g ai/ha; for pest or weed control at 125 g/ha: 125 g ai/ha; for pest or weed control at 16 g/ha: postemergence, 16 g ai/ha, scale 0 to 100, 0 no effect, 100 complete control
Source text: as §1, §2

Italian ryegrass = assay: Test E postemergence; type: in vivo, Lolium multiflorum; details: Lolium multiflorum, post-emergence, read-out: Plant response rating, Ryegrass, Italian; for pest or weed control at 62 g/ha: 62 g ai/ha; for pest or weed control at 125 g/ha: 125 g ai/ha; for pest or weed control at 16 g/ha: postemergence, 16 g ai/ha, scale 0 to 100, 0 no effect, 100 complete control
Source text: as §1, §2

field bindweed = assay: Test E postemergence; type: in vivo, Convolvulus arvensis; details: Convolvulus arvensis, post-emergence, read-out: Plant response rating, Field Bindweed; for pest or weed control at 31 g/ha: 31 g ai/ha; for pest or weed control at 62 g/ha: 62 g ai/ha; for pest or weed control at 125 g/ha: 125 g ai/ha; for pest or weed control at 16 g/ha: postemergence, 16 g ai/ha, scale 0 to 100, 0 no effect, 100 complete control
Source text: as §1, §2

rice = assay: Test C flooded paddy test; type: in vivo, Oryza sativa; details: Flood, scale 0 to 100 (0 no effect, 100 complete control), 13 to 15 days
How it was run: (§3)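 Test compounds are applied straight into paddy water held 3 cm above the soil surface, with that flood maintained for the whole test. After 13 to 15 days in the greenhouse, each species is scored visually relative to controls.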

ducksalad = assay: Test C flooded paddy test; type: in vivo, Heteranthera limosa; details: Flood, scale 0 to 100 (0 no effect, 100 complete control), 13 to 15 days
How it was run: as §3

[1] = Postemergence, 250 g ai/ha, scale 0 to 100

SMILES	pest or weed control at 31 g/ha (wild poinsettia; Postemergence, scale 0 to 100)	pest or weed control at 62 g/ha (wild poinsettia; Postemergence, scale 0 to 100)	pest or weed control at 125 g/ha (wild poinsettia; Postemergence, scale 0 to 100)	pest or weed control at 16 g/ha (wild poinsettia)	pest or weed control at 31 g/ha (palmer pigweed; Postemergence, scale 0 to 100)	pest or weed control at 62 g/ha (palmer pigweed; Postemergence, scale 0 to 100)	pest or weed control at 125 g/ha (palmer pigweed; Postemergence, scale 0 to 100)	pest or weed control at 16 g/ha (palmer pigweed)	pest or weed control at 31 g/ha (sandbur; Postemergence, scale 0 to 100)	pest or weed control at 62 g/ha (sandbur; Postemergence, scale 0 to 100)	pest or weed control at 125 g/ha (sandbur; Postemergence, scale 0 to 100)	pest or weed control at 16 g/ha (sandbur)	pest or weed control at 62 g/ha (Italian ryegrass; Postemergence, scale 0 to 100)	pest or weed control at 125 g/ha (Italian ryegrass; Postemergence, scale 0 to 100)	pest or weed control at 16 g/ha (Italian ryegrass)	pest or weed control at 31 g/ha (field bindweed; Postemergence, scale 0 to 100)	pest or weed control at 62 g/ha (field bindweed; Postemergence, scale 0 to 100)	pest or weed control at 125 g/ha (field bindweed; Postemergence, scale 0 to 100)	pest or weed control at 16 g/ha (field bindweed)	Plant response rating, Rice (rice; 250 g ai/ha)	other results
Clc1cnn(-c2ccccc2Oc2ncc(Br)cn2)c1 [Compound 5, 5-bromo-2-[2-(4-chloro-1H-pyrazol-1-yl)phenoxy]pyrimidine]	20%	30%	35%	10%	75%	85%	95%	60%	0%	0%	10%	0%	0%	0%	0%	20%	30%	30%	10%	–	pest or weed control at 250 g/ha (wild poinsettia; [1]): 50%; pest or weed control at 250 g/ha (palmer pigweed; [1]): 98%; pest or weed control at 250 g/ha (sandbur; [1]): 20%; pest or weed control at 31 g/ha (Italian ryegrass; Postemergence, 31 g ai/ha, scale 0 to 100): 0%; pest or weed control at 250 g/ha (Italian ryegrass; [1]): 0%; pest or weed control at 250 g/ha (field bindweed; [1]): 40%
N#Cc1cccc(Oc2ncc(F)cn2)c1-n1cc(C(F)(F)F)cn1 [Compound 79, 3-[(5-fluoro-2-pyrimidinyl)oxy]-2-[4-(trifluoromethyl)-1H-pyrazol-1-yl]benzonitrile]	40%	50%	60%	40%	50%	95%	90%	50%	0%	0%	10%	0%	0%	0%	0%	70%	80%	80%	60%	–	–
FC(F)c1cnn(-c2ccccc2Oc2ncc(Cl)cn2)c1 [Compound 80, 5-chloro-2-[2-[4-(difluoromethyl)-1H-pyrazol-1-yl]phenoxy]pyrimidine]	–	–	–	–	–	–	–	–	–	–	–	–	–	–	–	–	–	–	–	0	Plant response rating, Rice (rice; 500 g ai/ha): 0; Plant response rating, Rice (rice; 1000 g ai/ha): 0; Plant response rating, Rice (rice; 2000 g ai/ha): 0; Plant response rating, Ducksalad (ducksalad; 250 g ai/ha): 50; Plant response rating, Ducksalad (ducksalad; 500 g ai/ha): 75; Plant response rating, Ducksalad (ducksalad; 1000 g ai/ha): 80; Plant response rating, Ducksalad (ducksalad; 2000 g ai/ha): 80
N#Cc1cccc(Oc2ncc(Cl)cn2)c1-n1cc(OC(F)F)cn1 [Compound 97]	–	–	–	–	–	–	–	–	–	–	–	–	–	–	–	–	–	–	–	0	Plant response rating, Rice (rice; 31 g ai/ha): 0; Plant response rating, Rice (rice; 62 g ai/ha): 0; Plant response rating, Rice (rice; 125 g ai/ha): 0; Plant response rating, Ducksalad (ducksalad; 31 g ai/ha): 0; Plant response rating, Ducksalad (ducksalad; 62 g ai/ha): 40; Plant response rating, Ducksalad (ducksalad; 125 g ai/ha): 75; Plant response rating, Ducksalad (ducksalad; 250 g ai/ha): 80

From patent publication US9695155B2, “Herbicidal substituted pyrimidinyloxy benzene compounds” (E. I. DU PONT DE NEMOURS AND COMPANY, priority 2013, dated 2017)
